# Reference: ChEMBL document CHEMBL4145553, “Design, synthesis, and biological evaluation of novel amide and hydrazide based thioether analogs targeting Histone deacteylase (HDAC) enzymes” (Eur J Med Chem, 2018)
# Legend:
# CAKI-1 = assay: Growth inhibition of human Caki1 cells assessed as cell growth at 10^-7 M incubated for 48 hrs by sulforhodamine B assay relative to control; format: functional; conditions: CAKI-1, 48 h, read-out: Activity
# HT-29 = assay: Growth inhibition of human HT-29 cells assessed as cell growth at 10^-7 M incubated for 48 hrs by sulforhodamine B assay relative to control; format: functional; conditions: HT-29, 48 h, read-out: Activity
# HOP-62 = assay: Growth inhibition of human HOP62 cells assessed as cell growth at 10^-5 M incubated for 48 hrs by sulforhodamine B assay relative to control; format: functional; conditions: HOP-62, 48 h, read-out: Activity
# RXF 393 [1] = assay: Growth inhibition of human RXF393 cells assessed as cell growth at 10^-7 M incubated for 48 hrs by sulforhodamine B assay relative to control; format: functional; conditions: RXF 393, 48 h, read-out: Activity
# NCI-H23 = assay: Growth inhibition of human NCI-H23 cells assessed as cell growth at 10^-5 M incubated for 48 hrs by sulforhodamine B assay relative to control; format: functional; conditions: NCI-H23, 48 h, read-out: Activity
# Hs-578T = assay: Growth inhibition of human Hs 578T cells assessed as cell growth at 10^-8 M incubated for 48 hrs by sulforhodamine B assay relative to control; format: functional; conditions: read-out: Activity
# RPMI-8226 [2] = assay: Growth inhibition of human RPMI8226 cells assessed as cell growth at 10^-7 M incubated for 48 hrs by sulforhodamine B assay relative to control; format: functional; conditions: RPMI-8226, 48 h, read-out: Activity
# SNB-19 [3] = assay: Growth inhibition of human SNB19 cells assessed as cell growth at 10^-6 M incubated for 48 hrs by sulforhodamine B assay relative to control; format: functional; conditions: SNB-19, 48 h, read-out: Activity
# UACC-257 = assay: Growth inhibition of human UACC257 cells assessed as cell growth at 10^-5 M incubated for 48 hrs by sulforhodamine B assay relative to control; format: functional; conditions: UACC-257, 48 h, read-out: Activity
# HL-60 = assay: Cell cycle arrest in human HL60 cells assessed as accumulation at G2-phase by propidium iodide staining based flow cytometry (reference value: 6.58%); format: functional
# NCI/ADR-RES [4] = assay: Growth inhibition of human NCI/ADR-RES cells assessed as cell growth at 10^-8 M incubated for 48 hrs by sulforhodamine B assay relative to control; format: functional; conditions: read-out: Activity
# NCI-H226 = assay: Growth inhibition of human NCI-H226 cells incubated for 48 hrs by sulforhodamine B assay; format: functional; conditions: NCI-H226, 48 h
# RXF 393 [5] = assay: Growth inhibition of human RXF393 cells incubated for 48 hrs by sulforhodamine B assay; format: functional; conditions: RXF 393, 48 h
# Histone deacetylase 8 = Histone deacetylase 8 (Homo sapiens, UniProt Q9BY41); assay: Inhibition of HDAC8 (unknown origin) by ELISA
# OVCAR-3 = assay: Growth inhibition of human OVCAR3 cells assessed as cell growth at 10^-7 M incubated for 48 hrs by sulforhodamine B assay relative to control; format: functional; conditions: OVCAR-3, 48 h, read-out: Activity
# HCT-15 = assay: Growth inhibition of human HCT15 cells incubated for 48 hrs by sulforhodamine B assay; format: functional; conditions: HCT-15, 48 h
# K562 = assay: Growth inhibition of human K562 cells assessed as cell growth at 10^-5 M incubated for 48 hrs by sulforhodamine B assay relative to control; format: functional; conditions: K562, 48 h, read-out: Activity
# SK-MEL-5 = assay: Growth inhibition of human SK-MEL-5 cells assessed as cell growth at 10^-8 M incubated for 48 hrs by sulforhodamine B assay relative to control; format: functional; conditions: SK-MEL-5, 48 h, read-out: Activity
# LOX IMVI = assay: Growth inhibition of human LOXIMVI cells assessed as cell growth at 10^-5 M incubated for 48 hrs by sulforhodamine B assay relative to control; format: functional; conditions: read-out: Activity
# OVCAR-5 = assay: Growth inhibition of human OVCAR5 cells assessed as cell growth at 10^-5 M incubated for 48 hrs by sulforhodamine B assay relative to control; format: functional; conditions: OVCAR-5, 48 h, read-out: Activity
# IGROV-1 = assay: Growth inhibition of human IGROV1 cells assessed as cell growth at 10^-5 M incubated for 48 hrs by sulforhodamine B assay relative to control; format: functional; conditions: IGROV-1, 48 h, read-out: Activity
# HL-60(TB) = assay: Growth inhibition of human HL-60(TB) cells incubated for 48 hrs by sulforhodamine B assay; format: functional; conditions: HL-60, 48 h
# NCI/ADR-RES [6] = assay: Growth inhibition of human NCI/ADR-RES cells incubated for 48 hrs by sulforhodamine B assay; format: functional
# MDA-MB-435 = assay: Cell cycle arrest in human MDA-MB-435 cells assessed as accumulation at S-phase by propidium iodide staining based flow cytometry (reference value: 26.46%); format: functional
# SNB-75 = assay: Growth inhibition of human SNB75 cells assessed as cell growth at 10^-4 M incubated for 48 hrs by sulforhodamine B assay relative to control; format: functional; conditions: SNB-75, 48 h, read-out: Activity
# SK-MEL-2 = assay: Growth inhibition of human SK-MEL-2 cells assessed as cell growth at 10^-7 M incubated for 48 hrs by sulforhodamine B assay relative to control; format: functional; conditions: SK-MEL-2, 48 h, read-out: Activity
# SNB-19 [7] = assay: Growth inhibition of human SNB19 cells incubated for 48 hrs by sulforhodamine B assay; format: functional; conditions: SNB-19, 48 h
# HCT-116 = assay: Growth inhibition of human HCT116 cells assessed as cell growth at 10^-8 M incubated for 48 hrs by sulforhodamine B assay relative to control; format: functional; conditions: HCT-116, 48 h, read-out: Activity
# RPMI-8226 [8] = assay: Growth inhibition of human RPMI8226 cells assessed as cell growth at 10^-8 M incubated for 48 hrs by sulforhodamine B assay relative to control; format: functional; conditions: RPMI-8226, 48 h, read-out: Activity
# [9] = read-out: LC50 (the source's name)
# [10] = read-out: pLC50 (the source's name) (converted)
# Histone deacetylase 8, sequence (Q9BY41 whole entry): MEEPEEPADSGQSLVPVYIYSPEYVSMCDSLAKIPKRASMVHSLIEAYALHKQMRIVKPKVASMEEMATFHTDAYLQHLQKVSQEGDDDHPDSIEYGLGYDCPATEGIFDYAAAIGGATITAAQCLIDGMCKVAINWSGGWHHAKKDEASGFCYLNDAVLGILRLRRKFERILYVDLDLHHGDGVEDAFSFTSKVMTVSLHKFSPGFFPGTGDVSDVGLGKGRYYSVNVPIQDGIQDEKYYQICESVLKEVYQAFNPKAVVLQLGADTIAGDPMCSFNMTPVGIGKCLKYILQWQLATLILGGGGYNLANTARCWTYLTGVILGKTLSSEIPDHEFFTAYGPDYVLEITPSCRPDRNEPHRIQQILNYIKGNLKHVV
structure (smiles),measurement,setting,value
CCS/C(Nc1ccccc1)=C(\C#N)C(=O)Nc1ccc(OC)cc1,growth at 0.1 µM,CAKI-1,85%
same,growth at 0.1 µM,HT-29,105%
same,growth at 10 µM,HOP-62,41%
same,growth at 0.1 µM,RXF 393 [1],100%
same,growth at 10 µM,NCI-H23,34%
same,growth at 0.01 µM,Hs-578T,97%
same,growth at 0.1 µM,RPMI-8226 [2],89%
same,growth at 1 µM,SNB-19 [3],84%
same,growth at 10 µM,UACC-257,56%
same,Activity,HL-60,16.32%
same,growth at 0.01 µM,NCI/ADR-RES [4],100%
same,GI50,NCI-H226; read-out: GI50,5.45 µM
same,CC50,NCI-H226; [9],> 100 µM
same,TGI,NCI-H226; read-out: TGI,50.7 µM
same,GI50,NCI-H226; read-out: pGI50 (converted),5.5 µM
same,CC50,NCI-H226; [10],> 100 µM
same,TGI,NCI-H226; read-out: pTGI (converted),50.1 µM
same,GI50,RXF 393 [5]; read-out: GI50,2.24 µM
same,CC50,RXF 393 [5]; [9],> 100 µM
same,TGI,RXF 393 [5]; read-out: TGI,7.86 µM
same,GI50,RXF 393 [5]; read-out: pGI50 (converted),2.24 µM
same,CC50,RXF 393 [5]; [10],> 100 µM
same,TGI,RXF 393 [5]; read-out: pTGI (converted),7.94 µM
same,IC50,Histone deacetylase 8,0.295 µM
same,growth at 0.1 µM,OVCAR-3,97%
same,GI50,HCT-15; read-out: GI50,1.19 µM
same,CC50,HCT-15; [9],> 100 µM
same,TGI,HCT-15; read-out: TGI,> 100 µM
same,GI50,HCT-15; read-out: pGI50 (converted),1.2 µM
same,CC50,HCT-15; [10],> 100 µM
same,TGI,HCT-15; read-out: pTGI,> 100 µM
same,growth at 10 µM,K562,12%
same,growth at 0.01 µM,SK-MEL-5,98%
same,growth at 10 µM,LOX IMVI,40%
same,growth at 10 µM,OVCAR-5,33%
same,growth at 10 µM,IGROV-1,39%
same,GI50,HL-60(TB); read-out: GI50,2.87 µM
same,CC50,HL-60(TB); [9],> 100 µM
same,TGI,HL-60(TB); read-out: TGI,> 100 µM
same,GI50,HL-60(TB); read-out: pGI50 (converted),2.88 µM
same,CC50,HL-60(TB); [10],> 100 µM
same,TGI,HL-60(TB); read-out: pTGI,> 100 µM
same,GI50,NCI/ADR-RES [6]; read-out: GI50,2.62 µM
same,CC50,NCI/ADR-RES [6]; [9],> 100 µM
same,TGI,NCI/ADR-RES [6]; read-out: TGI,> 100 µM
same,GI50,NCI/ADR-RES [6]; read-out: pGI50 (converted),2.63 µM
same,CC50,NCI/ADR-RES [6]; [10],> 100 µM
same,TGI,NCI/ADR-RES [6]; read-out: pTGI,> 100 µM
same,Activity,MDA-MB-435,19.26%
same,growth at 100 µM,SNB-75,-22%
same,growth at 0.1 µM,SK-MEL-2,102%
same,GI50,SNB-19 [7]; read-out: GI50,3.55 µM
same,CC50,SNB-19 [7]; [9],> 100 µM
same,TGI,SNB-19 [7]; read-out: TGI,> 100 µM
same,GI50,SNB-19 [7]; read-out: pGI50 (converted),3.55 µM
same,CC50,SNB-19 [7]; [10],> 100 µM
same,TGI,SNB-19 [7]; read-out: pTGI,> 100 µM
same,growth at 0.01 µM,HCT-116,100%
same,growth at 0.01 µM,RPMI-8226 [8],94%
CCS/C(Nc1ccccc1)=C(\C#N)C(=O)N/N=C\c1ccc(Cl)cc1Cl,growth at 0.1 µM,CAKI-1,84%
same,growth at 0.1 µM,HT-29,101%
same,growth at 10 µM,HOP-62,29%
same,growth at 0.1 µM,RXF 393 [1],87%
same,growth at 10 µM,NCI-H23,41%
same,growth at 0.01 µM,Hs-578T,96%
same,growth at 0.1 µM,RPMI-8226 [2],94%
same,growth at 1 µM,SNB-19 [3],86%
same,growth at 10 µM,UACC-257,61%
same,Activity,HL-60,22.18%
same,growth at 0.01 µM,NCI/ADR-RES [4],98%
same,GI50,NCI-H226; read-out: GI50,4 µM
same,CC50,NCI-H226; [9],> 100 µM
same,TGI,NCI-H226; read-out: TGI,> 100 µM
same,GI50,NCI-H226; read-out: pGI50 (converted),3.98 µM
same,CC50,NCI-H226; [10],> 100 µM
same,TGI,NCI-H226; read-out: pTGI (converted),> 100 µM
same,GI50,RXF 393 [5]; read-out: GI50,2.06 µM
same,CC50,RXF 393 [5]; [9],> 100 µM
same,TGI,RXF 393 [5]; read-out: TGI,8.65 µM
same,GI50,RXF 393 [5]; read-out: pGI50 (converted),2.04 µM
same,CC50,RXF 393 [5]; [10],> 100 µM
same,TGI,RXF 393 [5]; read-out: pTGI (converted),8.71 µM
same,IC50,Histone deacetylase 8,0.202 µM
same,growth at 0.1 µM,OVCAR-3,97%
same,GI50,HCT-15; read-out: GI50,2.9 µM
same,CC50,HCT-15; [9],> 100 µM
same,TGI,HCT-15; read-out: TGI,> 100 µM
same,GI50,HCT-15; read-out: pGI50 (converted),2.88 µM
same,CC50,HCT-15; [10],> 100 µM
same,TGI,HCT-15; read-out: pTGI,> 100 µM
same,growth at 10 µM,K562,10%
same,growth at 0.01 µM,SK-MEL-5,101%
same,growth at 10 µM,LOX IMVI,39%
same,growth at 10 µM,OVCAR-5,45%
same,growth at 10 µM,IGROV-1,42%
same,GI50,HL-60(TB); read-out: GI50,3.2 µM
same,CC50,HL-60(TB); [9],> 100 µM
same,TGI,HL-60(TB); read-out: TGI,> 100 µM
same,GI50,HL-60(TB); read-out: pGI50 (converted),3.24 µM
same,CC50,HL-60(TB); [10],> 100 µM
same,TGI,HL-60(TB); read-out: pTGI,> 100 µM
same,GI50,NCI/ADR-RES [6]; read-out: GI50,3.16 µM
same,CC50,NCI/ADR-RES [6]; [9],> 100 µM
same,TGI,NCI/ADR-RES [6]; read-out: TGI,> 100 µM
same,GI50,NCI/ADR-RES [6]; read-out: pGI50 (converted),3.16 µM
same,CC50,NCI/ADR-RES [6]; [10],> 100 µM
same,TGI,NCI/ADR-RES [6]; read-out: pTGI,> 100 µM
same,Activity,MDA-MB-435,19.16%
same,growth at 100 µM,SNB-75,-17%
same,growth at 0.1 µM,SK-MEL-2,101%
same,GI50,SNB-19 [7]; read-out: GI50,4.17 µM
same,CC50,SNB-19 [7]; [9],> 100 µM
same,TGI,SNB-19 [7]; read-out: TGI,> 100 µM
same,GI50,SNB-19 [7]; read-out: pGI50 (converted),4.17 µM
same,CC50,SNB-19 [7]; [10],> 100 µM
same,TGI,SNB-19 [7]; read-out: pTGI,> 100 µM
same,growth at 0.01 µM,HCT-116,96%
same,growth at 0.01 µM,RPMI-8226 [8],101%
